This note sets out measurements from patent US5118669A, “Peptides and intermediates therefor useful as antiallergic agents, vasodilators and immunoregulators” (Hitachi Chemical Co., Ltd., priority 1989, dated 1992).

The subject of assay [1] is TNF. As to the kind of experiment: Productivity of humoral factors by lymphocytes: TNF. The class given is cell-based, human (healthy adult). As to conditions: for TNF: cultivation for a week, control 2,020; for production of TNF: summary of Table 7. The procedure:
(§1) Mononuclear cells separated by the density centrifugal method from blood of a healthy adult drawn in the presence of heparin were suspended in an RPMI-1640 culture medium containing 10% by volume of FBS. The suspension was divided into culture tubes (Falcon 2054) each at a concentration of 1×10^6 cells/ml, to which the captioned peptides were respectively added. Cultivation was made in an incubator for a week. After completion of the cultivation, the culture was centrifuged (1,500 rpm, 10 min.), and the supernatant collected and assayed for humoral factors. Interleukin 1 (IL-1) and tumor-nectrotizing factors were measured, respectively by a IL-1 radioimmunoassay kit (manufactured by Amersham International) and a TNF radioimmunoassay kit (manufactured by Medgenix). Measurement of interleukin 6 (IL-6) was made by the enzyme immunoassay method (ELISA) using IL-6 antibody (manufactured by Genzyme). Results of the measurements are shown in Table 7 wherein figures represent mean value±standard error.

Assay [2] deals with lymphocytes (mononuclear cells from blood of a healthy adult). As to the kind of experiment: Blast formation of lymphocytes stimulated with various lectins (3H-thymidine uptake). The class given is cell-based, human (healthy adult). The following applies: for uptake of 3H-thymine by the lymphocytes stimulated with a lectin: particularly Con-A; for uptake of 3H-thymine by the lymphocytes stimulated with a lectin / influence upon uptake of 3H-thymine by lymphocytes in the absence of a mitogen: summary of Tables 3-6; for influence upon uptake of 3H-thymine by lymphocytes in the absence of a mitogen: no mitogen. The procedure:
Mononuclear cells were collected by the density centrifugal method from blood of a healthy adult drawn in the presence of heparin and suspended in an RPMI-1640 culture medium (manufactured by Gibco) containing 10% by volume of bovine fetus serum (called FBS, manufactured by Dainihon Seiyaku). The suspension, adjusted to a concentration of 1×10^6 cells/ml, was divided into a 96-well Falcon microplate (manufactured by Becton Dickinson) in a volume of 100 μl/well. Then, a lectin, 1 μg/ml of PHA (phytohemagglutinin), 10 μg/ml of Con-A (concanavalin A) or 15 μg/ml of PWM (pokeweed mitogen) and one of the captioned peptides at a predetermined concentration were added followed by addition of a 10% FBS containing RPMI-1640 medium to a final liquid volume of 200 μl. Cultivation was made in a 5% by volume CO2 incubator at 37° C. for 72 hours, and 24 hours before completion of the cultivation 5 μCi of ^3 H-thymidine was added. The cells were recovered by a cell harvester (manufactured by Bio-Lab), and uptake of the ^3 H-thymidine was measured by a scintillation counter. Results of the measurement are shown in Table 3-Table 6 wherein figures indicate mean count (cpm)±standard error.

Assay [3] deals with intraperitoneal mast cells of the rats. As to the kind of experiment: Inhibitory activity on histamine release from passively sensitized rat mast cells. It counts as cell-based. The procedure: Male Wistar rats weighing 300-350 g were passively sensitized, and intraperitoneal mast cells of the rats were employed for the test. Rat antiserum used in the passive sensitization was prepared in accordance with the method of Mota [Immunology, 7, p. 681 (1964)] and the method of Hamaoka [J. Immunology, 113, p. 958 (1974)]. Male Wistar rats (weighing 200-250 g) each were injected ovalbumin (10 mg/kg) in a volume of 5 ml/kg intramuscularly on both thighs and simultaneously 2×10^10 cells of killed Bordetella pertussis were intraperitoneally administered to immunize the animal. Blood was drawn from the animal under ether anesthesia via the abdominal aorta on day 12 of the initial sensitization,from which antiserum was separated. The antiserum was lyophilized and stored at -20° C. Titer of the antiserum was assayed by the 48-hour rat PCA reaction. […] The anti-albumin IgE serum of the rat was two fold diluted, and 1 ml of the diluted serum was intraperitoneally administered to sensitize the animal. The rat was killed by blooding 48 hours after the sensitization, and 15 ml of a phosphate buffered saline (NaCl 8 g, KCl 0.2 g, Na2 HPO4.12H2 O 2.88 g, KH2 PO4 0.2 g, EDTA.2Na 0.2 g and bovine serum albumin 1 g, dissolved in purified water to make 1 liter, pH 7.4 (called PBS(-) hereinbelow) was intraperitoneally injected. The rat was then given light abdominal massage for about 2 min. and subjected to laparotomy to collect cells in the abdominal cavity. The cell suspension was centrifuged (1,000 rpm, 10 min.) and then resuspended in PBS(-). The PBS(-) suspension was overlayered on gum arabic density (specific gravity 1.075) followed by centrifugal separation (2,500 rpm, 10 min.). Deposited cells were washed with PBS(-) and suspended in fresh PBS(+)[a solution in which the EDTA 2Na in PBS(-) is replaced by 0.1 g of CaCl2, called PBS(+)] and adjusted to 1×10^5 cells/ml. The cell suspension was divided into silicone-treated test tubes in a volume of 0.8 ml/tube, which were then preincubated at 37° C. for 10 min. In the cell suspension-containing test tube was placed 0.1 ml of a test solution from various solutions diluted with PBS(+) followed by incubation at 37° C. for 15 min. To the test tube was then added 0.1 ml of a mixed solution of ovalbumin antigen (final concentration 1 mg/ml) and phosphatidyl-L-serine (final concentration 100 μm/ml) followed by incubation for additional 15 min. to release histamine. For cromoglycate, one of the comparative drugs, the drug was added 30 sec. prior to the addition of the antigen, and incubation was then made for additional 15 min. The reaction was terminated by addition of 1 ml of ice-cooled PBS(+), and the reaction mixture was centrifuged at 2,500 rpm for 10 min. To 2 ml of the supernatant was added 1 ml of a 4% solution of perchloric acid, and the mixture was assayed for free histamine. For the assay of total histamine, a sample was prepared by placing 0.8 ml of a suspension of untreated mast cells in boiling water for 10 min. followed by addition of 4% perchloric acid.
Amount of histamine in the sample was assayed by fluorimetry, and percent histamine release (%) was calculated by the equation [formula]

Assay [4] relates to IL-1. As to the kind of experiment: Productivity of humoral factors by lymphocytes: IL-1. It counts as cell-based, human (healthy adult). As to conditions: for IL-1: cultivation for a week, control 7.1; for production of IL-1: summary of Table 7. The procedure: as §1
For assay [5], the system named is IL-6. Description: Productivity of humoral factors by lymphocytes: IL-6. It counts as cell-based, human (healthy adult). As to conditions: for IL-6: cultivation for a week, control 270; for production of IL-6: summary of Table 7. The procedure:
as §1

Assay [6] has as its system thoracic aorta of male rabbits contracted with potassium chloride. Description: Vasodilating action on aortic spiral strip contracted with potassium chloride. More on the design: species or system rabbit. As to conditions: potassium chloride contraction. The procedure:
(§2) The thoracic aorta of male rabbits weighing 2.5-3 kg was excised and aortic specimens of spiral strip 25-30 mm in length were prepared. […] The specimen was cumulatively administered with H-Asp-Gly-Lys-OH, H Ser-Asp-Gly-Lys-OH, or H-Asp-Ser-Asp-Gly-Lys-OH or H-Ala-Asp-Ser-Asp-Gly-Lys-OH, and relaxation reaction of the blood vessel was observed. As comparative drug were employed nitroprusside (sodium salt) and verapamil.

Assay [7] concerns thoracic aorta of male rabbits contracted with norepinephrine. As to the kind of experiment: Vasodilating action on aortic spiral strip contracted with norepinephrine. More on the design: species or system rabbit. As to conditions: norepinephrine contraction. The procedure:
as §2

The mark [8] stands for this setting: Con-A (10 μg/ml), peptide 10^-6 M, control 37,800.
Setting [9] is: Con-A (10 μg/ml), peptide 10^-8 M, control 37,800.
The mark [10] stands for this setting: PHA (1 μg/ml), peptide 10^-6 M, control 69,600.
The mark [11] stands for this setting: PHA (1 μg/ml), peptide 10^-8 M, control 69,600.
The mark [12] stands for this setting: PWM (15 μg/ml), peptide 10^-6 M, control 13,600.
Setting [13] is: PWM (15 μg/ml), peptide 10^-8 M, control 13,600.
[14] abbreviates: mitogen None, peptide 10^-6 M, control 1,090.
Where [15] appears, read: mitogen None, peptide 10^-8 M, control 1,090.

Consider “H-ADSDGK-OH [ADSDGK, H-Ala-Asp-Ser-Asp-Gly-Lys-OH]”, for which the TNF in assay [1] (additive 10^-6 M) was 3,620 pg/ml; in assay [1] (additive 10^-8 M), 4,120 pg/ml. Besides, the “production of TNF” value in assay [1] is “promote production”. In addition, the “Uptake of 3H-thymidine by lymphocytes” value was 21,500 cpm in assay [2] (setting [8]); 24,600 cpm in assay [2] (setting [9]); 63,000 cpm in assay [2] (setting [10]); 64,100 cpm in assay [2] (setting [11]); 13,600 cpm in assay [2] (setting [12]); 14,500 cpm in assay [2] (setting [13]). Moreover, the figures for the “Uptake of 3H-thymidine by lymphocytes” value in assay [2] (setting [14]) and in assay [2] (setting [15]) were 900 cpm and 797 cpm, respectively. The “uptake of 3H-thymine by the lymphocytes stimulated with a lectin” value in assay [2] is reported as “strongly inhibit”. Moreover, the “influence upon uptake of 3H-thymine by lymphocytes in the absence of a mitogen” value in assay [2] is given as “little influence”. For the same compound, the “inhibitory activity on histamine release” value in assay [3] (at a concentration of 10^-5 M or higher, FIG. 5-7) was “clear inhibitory activity”. In addition, the “potency of histamine release inhibition compared with H-Asp-Ser-Asp-Pro-Arg-OH” value in assay [3] (versus comparative drug H-Asp-Ser-Asp-Pro-Arg-OH) is recorded as “higher”. Also, the “potency of histamine release inhibition compared with cromoglycate” value in assay [3] (versus cromoglycate) is listed as “nearly equal to or higher”. For the same compound, the IL-1 is 11.2 fM/ml in assay [4] (additive 10^-6 M) and 11.3 fM/ml in assay [4] (additive 10^-8 M). Moreover, in assay [4], the “production of IL-1” value is recorded as “promote production”. In addition, the IL-6 in assay [5] (additive 10^-6 M) and in assay [5] (additive 10^-8 M) was 270 U/ml each time. The “production of IL-6” value in assay [5] is recorded as “promote production”.

For nitroprusside [reference compound], the Percent relaxation in assay [6] (compound 10^-4 M) was determined as 35.7%; in assay [6] (compound 10^-5 M) it was 24.3%; in assay [6] (compound 10^-6 M) it was 11.4%; in assay [6] (compound 10^-7 M) it was 1.4%; in assay [6] (compound 10^-8 M), 0%; in assay [7] (compound 10^-4 M) it was 98.8%. Further, the Percent relaxation is listed as 93.8% in assay [7] (compound 10^-5 M), 86.0% in assay [7] (compound 10^-6 M), 59.4% in assay [7] (compound 10^-7 M) and 16.1% in assay [7] (compound 10^-8 M).

“H-DSDGK-OH [DSDGK, H-Asp-Ser-Asp-Gly-Lys-OH]”: the TNF is given as 4,270 pg/ml in assay [1] (additive 10^-6 M) and 4,100 pg/ml in assay [1] (additive 10^-8 M). Also, the “production of TNF” value in assay [1] is “promote production”. For the same compound, the “Uptake of 3H-thymidine by lymphocytes” value in assay [2] (setting [8]) is given as 19,300 cpm; in assay [2] (setting [9]), 17,900 cpm; in assay [2] (setting [10]) it was 56,900 cpm; in assay [2] (setting [11]), 62,000 cpm; in assay [2] (setting [12]), 13,000 cpm; in assay [2] (setting [13]) it was 9,550 cpm. Further, the “Uptake of 3H-thymidine by lymphocytes” value in assay [2] (setting [14]) was found to be 877 cpm; in assay [2] (setting [15]) it was 887 cpm. Moreover, the “uptake of 3H-thymine by the lymphocytes stimulated with a lectin” value in assay [2] is “strongly inhibit”. For the same compound, in assay [2], the “influence upon uptake of 3H-thymine by lymphocytes in the absence of a mitogen” value was “little influence”. The values for the IL-1 in assay [4] (additive 10^-6 M) and in assay [4] (additive 10^-8 M) were 8.3 fM/ml and 7.3 fM/ml, respectively. The “production of IL-1” value in assay [4] was “promote production”. Moreover, the IL-6 stood at 400 U/ml in assay [5] (additive 10^-6 M) and 280 U/ml in assay [5] (additive 10^-8 M). Further, the “production of IL-6” value in assay [5] is given as “promote production”.

For the compound `COc1ccc(CCN(C)CCCC(C#N)(c2ccc(OC)c(OC)c2)C(C)C)cc1OC` (stereo not shown) [Verapamil, verapamil, reference compound], the Percent relaxation in assay [6] (compound 10^-4 M) is given as 100%; in assay [6] (compound 10^-5 M) it was 100%; in assay [6] (compound 10^-6 M) it was 97.1%; in assay [6] (compound 10^-7 M), 68.3%; in assay [6] (compound 10^-8 M) it was 7.1%; in assay [7] (compound 10^-4 M) it was 68.6%. In addition, the Percent relaxation in assay [7] (compound 10^-5 M) was determined as 47.1%; in assay [7] (compound 10^-6 M), 20.6%; in assay [7] (compound 10^-7 M) it was 4.6%; in assay [7] (compound 10^-8 M), 0%.
